Experimental data: ChEMBL document CHEMBL4011618, “Discovery of Potent, Selective Stem Cell Factor Receptor/Platelet Derived Growth Factor Receptor Alpha (c-KIT/PDGFRα) Dual Inhibitor for the Treatment of Imatinib-Resistant Gastrointestinal Stromal Tumors (GISTs)” (J Med Chem, 2017)

What was measured:
[1] = biological target: Platelet-derived growth factor receptor alpha (Homo sapiens, UniProt P16234); assay: Inhibition of PDGFRalpha (unknown origin) using FAM-labeled peptide as substrate preincubated for 10 mins followed by substrate addition in presence of ATP by mobility shift assay
[2] = Antiproliferative activity against CHL cells assessed as cell growth inhibition after 72 hrs by cell titer-glo assay; format: cell-based, Cricetulus griseus; conditions: chinese hamster
KU812 cell line = assay: Antiproliferative activity against human KU812 cells assessed as cell growth inhibition after 72 hrs by cell titer-glo assay; format: functional; conditions: KU812, 72 h
[3] = biological target: Macrophage colony-stimulating factor 1 receptor (Homo sapiens, UniProt P07333); assay: Inhibition of human full length His-tagged CSF1R expressed in baculovirus by Z'Lyte assay
[4] = MRT (0 to t) in Sprague-Dawley rat at 2 mg/kg, iv up to 24 hrs post dose by LC/MS/MS analysis; format: ADME, organism-based; conditions: in vivo
[5] = AUC (0 to t) in Sprague-Dawley rat at 25 mg/kg, ip up to 24 hrs post dose by LC/MS/MS analysis; format: ADME, organism-based; set-up: dose 25 mg/kg, time < 24 hr, route intraperitoneal; conditions: in vivo
[6] = Half life in Sprague-Dawley rat at 2 mg/kg, iv up to 24 hrs post dose by LC/MS/MS analysis; format: ADME, organism-based; conditions: in vivo
[7] = Apparent clearance in Sprague-Dawley rat at 2 mg/kg, iv up to 24 hrs post dose by LC/MS/MS analysis; format: ADME, organism-based; conditions: in vivo, read-out: CL(app) (converted)
[8] = MRT (0 to t) in Sprague-Dawley rat at 25 mg/kg, ip up to 24 hrs post dose by LC/MS/MS analysis; format: ADME, organism-based; conditions: in vivo
[9] = Half life in Sprague-Dawley rat at 25 mg/kg, ip up to 24 hrs post dose by LC/MS/MS analysis; format: ADME, organism-based; conditions: in vivo
[10] = Cmax in Sprague-Dawley rat at 25 mg/kg, ip up to 24 hrs post dose by LC/MS/MS analysis; format: ADME, organism-based; set-up: dose 25 mg/kg, route intraperitoneal; conditions: in vivo
[11] = AUC (0 to t) in Sprague-Dawley rat at 100 mg/kg, ip up to 24 hrs post dose by LC/MS/MS analysis; format: ADME, organism-based; set-up: dose 100 mg/kg, time < 24 hr, route intraperitoneal; conditions: in vivo
[12] = Cmax in Sprague-Dawley rat at 100 mg/kg, ip up to 24 hrs post dose by LC/MS/MS analysis; format: ADME, organism-based; set-up: dose 100 mg/kg, route intraperitoneal; conditions: in vivo
[13] = Half life in rat liver microsomes at 1 uM in presence of NADPH by LC-MS/MS; format: ADME, microsome
[14] = biological target: Voltage-gated inwardly rectifying potassium channel KCNH2 (Homo sapiens, UniProt Q12809); assay: Inhibition of human ERG expressed in CHO cells by whole cell patch clamp assay; format: cell-based
GISTT1 = assay: Antitumor activity against human GISTT1 cells xenografted in nu/nu mouse assessed as tumor growth inhibition at 25 mg/kg, ip administered daily for 28 days relative to control; format: functional; conditions: 672 h, read-out: TGI
Mus musculus = assay: Toxicity in nu/nu mouse allografted with mouse BAF3 cells harboring TEL-cKIT-T670I mutant assessed as change in body weight at 25 to 100 mg/kg, ip administered daily for 11 days relative to control; format: organism-based; conditions: in vivo, 264 h
[15] = biological target: Vascular endothelial growth factor receptor 2 (Homo sapiens, UniProt P35968)
Description: Inhibition of VEGFR2 (unknown origin) using FAM-labeled peptide as substrate preincubated for 10 mins followed by substrate addition in presence of ATP by mobility shift assay

[16] = biological target: Mast/stem cell growth factor receptor Kit (Homo sapiens, UniProt P10721)
Description: Inhibition of TEL-fused cKIT (unknown origin) expressed in mouse BAF3 cells assessed as cell growth inhibition after 72 hrs by cell titer-glo assay

[17] = system: Mast/stem cell growth factor receptor Kit (Homo sapiens), P10721 [T670I]
Description: Inhibition of TEL-fused cKIT T670I mutant (unknown origin) expressed in mouse BAF3 cells assessed as cell growth inhibition after 72 hrs by cell titer-glo assay

[18] = system: Mast/stem cell growth factor receptor Kit (Homo sapiens), P10721 [V559D]
[19] = system: Mast/stem cell growth factor receptor Kit (Homo sapiens), P10721 [V654A]
Description: Inhibition of TEL-fused cKIT V654A mutant (unknown origin) expressed in mouse BAF3 cells assessed as cell growth inhibition after 72 hrs by cell titer-glo assay

[20] = system: Mast/stem cell growth factor receptor Kit (Homo sapiens), P10721 [V559D,V654A]
[21] = system: Mast/stem cell growth factor receptor Kit (Homo sapiens), P10721 [V559D,T670I]
[22] = system: Mast/stem cell growth factor receptor Kit (Homo sapiens), P10721 [D816H]
Mast/stem cell growth factor receptor Kit (Homo sapiens), P10721 [D816H], sequence (P10721 whole entry D816H): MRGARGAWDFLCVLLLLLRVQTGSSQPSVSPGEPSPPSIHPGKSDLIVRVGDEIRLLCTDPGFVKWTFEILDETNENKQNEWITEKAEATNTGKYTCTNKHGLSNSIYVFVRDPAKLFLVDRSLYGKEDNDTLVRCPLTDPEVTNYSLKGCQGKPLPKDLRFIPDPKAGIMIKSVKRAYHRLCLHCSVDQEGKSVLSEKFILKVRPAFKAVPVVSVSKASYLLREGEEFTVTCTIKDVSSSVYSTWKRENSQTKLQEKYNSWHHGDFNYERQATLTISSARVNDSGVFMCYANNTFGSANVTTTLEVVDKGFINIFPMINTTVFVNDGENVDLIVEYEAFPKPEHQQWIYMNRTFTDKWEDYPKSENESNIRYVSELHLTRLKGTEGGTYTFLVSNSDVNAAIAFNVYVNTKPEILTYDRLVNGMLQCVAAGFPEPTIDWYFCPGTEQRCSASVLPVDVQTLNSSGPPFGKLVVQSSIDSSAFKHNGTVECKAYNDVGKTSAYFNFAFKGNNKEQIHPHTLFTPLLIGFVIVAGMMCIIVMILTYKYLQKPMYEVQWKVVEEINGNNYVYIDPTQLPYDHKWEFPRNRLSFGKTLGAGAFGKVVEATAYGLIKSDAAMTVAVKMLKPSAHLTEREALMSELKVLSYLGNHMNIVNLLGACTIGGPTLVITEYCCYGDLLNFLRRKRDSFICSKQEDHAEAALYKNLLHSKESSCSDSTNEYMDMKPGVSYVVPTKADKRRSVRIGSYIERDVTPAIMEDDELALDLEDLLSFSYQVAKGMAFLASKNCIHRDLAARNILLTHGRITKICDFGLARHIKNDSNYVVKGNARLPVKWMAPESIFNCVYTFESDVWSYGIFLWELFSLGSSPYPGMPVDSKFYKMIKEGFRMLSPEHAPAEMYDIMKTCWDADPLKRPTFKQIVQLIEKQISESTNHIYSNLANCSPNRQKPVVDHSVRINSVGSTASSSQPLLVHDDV
Description: Inhibition of TEL-fused cKIT D816H mutant (unknown origin) expressed in mouse BAF3 cells assessed as cell growth inhibition after 72 hrs by cell titer-glo assay

Mast/stem cell growth factor receptor Kit (Homo sapiens), P10721 [V559D,T670I], sequence (P10721 whole entry V559D/T670I): as the sequence (P10721 whole entry D816H) above, with V559D, T670I, H816D counted along it
Mast/stem cell growth factor receptor Kit, sequence (P10721 whole entry): as the sequence (P10721 whole entry D816H) above, with H816D counted along it
Mast/stem cell growth factor receptor Kit (Homo sapiens), P10721 [T670I], sequence (P10721 whole entry T670I): as the sequence (P10721 whole entry D816H) above, with T670I, H816D counted along it
Macrophage colony-stimulating factor 1 receptor, sequence (P07333 whole entry): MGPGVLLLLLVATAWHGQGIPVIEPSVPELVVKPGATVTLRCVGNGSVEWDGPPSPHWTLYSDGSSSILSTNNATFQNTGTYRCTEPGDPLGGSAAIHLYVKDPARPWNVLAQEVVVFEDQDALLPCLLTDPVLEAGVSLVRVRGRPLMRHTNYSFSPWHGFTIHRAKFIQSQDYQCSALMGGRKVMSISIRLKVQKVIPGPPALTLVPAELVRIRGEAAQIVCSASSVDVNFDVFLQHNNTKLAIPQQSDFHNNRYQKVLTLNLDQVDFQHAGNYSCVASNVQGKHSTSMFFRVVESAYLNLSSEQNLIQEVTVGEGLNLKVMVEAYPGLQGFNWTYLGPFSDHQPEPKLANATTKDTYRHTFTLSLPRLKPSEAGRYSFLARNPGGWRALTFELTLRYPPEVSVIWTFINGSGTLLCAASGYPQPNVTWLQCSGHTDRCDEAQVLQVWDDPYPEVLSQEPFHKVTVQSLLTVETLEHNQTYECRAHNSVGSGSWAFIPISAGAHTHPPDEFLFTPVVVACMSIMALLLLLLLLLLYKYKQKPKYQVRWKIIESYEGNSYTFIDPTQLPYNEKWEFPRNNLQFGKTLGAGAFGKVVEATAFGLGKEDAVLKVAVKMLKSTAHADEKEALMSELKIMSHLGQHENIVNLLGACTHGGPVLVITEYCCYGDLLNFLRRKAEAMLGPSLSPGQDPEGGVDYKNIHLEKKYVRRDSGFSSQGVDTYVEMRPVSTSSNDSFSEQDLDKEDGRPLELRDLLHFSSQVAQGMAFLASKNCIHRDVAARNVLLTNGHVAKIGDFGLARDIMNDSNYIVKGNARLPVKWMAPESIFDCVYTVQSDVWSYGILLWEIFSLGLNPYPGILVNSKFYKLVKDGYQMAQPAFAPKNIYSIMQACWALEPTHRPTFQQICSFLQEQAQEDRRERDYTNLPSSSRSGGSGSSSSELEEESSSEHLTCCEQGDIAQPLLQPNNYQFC

Structure (SMILES): Cc1cc(NC(=O)Nc2ccc(-c3ccnc4[nH]nc(C)c34)cc2)ccc1N1CCOCC1
- IC50 [1]: 7.2 nM
- GI50 at 72 h [2]: 7040 nM
- GI50 (KU812 cell line): > 10000 nM
- IC50 [3]: 160 nM
- MRT last at 24 h [4]: 1.13 h
- AUC(0-t) at 24 h [5]: 691 ng·h/mL
- half-life [6]: 0.69 h
- clearance [7]: 15.8 mL/min/kg
- MRT last at 24 h [8]: 5.67 h
- half-life [9]: 5.09 h
- Cmax [10]: 117 ng/mL
- AUC(0-t) at 24 h [11]: 4250 ng·h/mL
- Cmax [12]: 656 ng/mL
- half-life at 1 µM [13]: 0.779 h
- IC50 [14]: > 40000 nM
- inhibition in vivo at 25 mg/kg (GISTT1): 20.2%
- Activity (Mus musculus): Non-Toxic
- IC50 [15]: 2280 nM
- GI50 [16]: 18.1 nM
- GI50 [17]: 39.2 nM
- GI50 [18]: 96.5 nM
- GI50 [19]: 136 nM
- GI50 [20]: 330 nM
- GI50 [21]: 36.4 nM
- GI50 [22]: 134 nM
